Reference: patent US7247640B2, “Medicament for treatment of bone marrow suppression, for treatment of infectious diseases and for increasing the number of leukocytes” (Nippon Kayaku Kabushiki Kaisha, priority 2001, dated 2007)

What was measured:
Format in all cases: in vivo, ICR strain male mice (Crj:CD-1)
leukocytes [1] = assay: Test for evaluating an efficacy on drug-induced leukopenia (cyclophosphamide); conditions: for number of leukocytes, percentage based on Day 0 / number of leukocytes (mean ± S.D): cyclophosphamide 200 mg/kg i.p. Day 0
Experimental: The effect of sulphostin [3(S)-amino-1-((R)-amino(sulfoamino)phosphinyl)-2-piperidone] on drug-induced leukopenia was evaluated according to the method of Okabe et al. (Yakuri to Chiryo (Japanese Pharmacology and Therapeutics) Vol. 19, No. 6, p. 55, 1991).
ICR strain male mice (Crj:CD-1) aged 8 weeks were used in the test. The animals were divided into three groups of 3 or 4 animals per group.
On Day 0, cyclophosphamide was intraperitoneally administered once to all the groups in a dose of 200 mg/kg. From the next day, the following were intravenously and repeatedly administered to the groups, respectively, for 5 days (Day 1 to 5); the first group (a control group): physiological saline, the second group: sulphostin (30 mg/kg/day), and the third group: sulphostin (100 mg/kg/day). Blood was drawn from the posterior-eyehole venous plexus on Day 0 (before the administration of cyclophosphamide) and Days 2, 4, 6 and 8 (the blood drawing, however, was carried out only on Days 0, 4 and 6 in the case of the second group), and the number of leukocytes was periodically measured to investigate the leukocyte-increasing effect of sulphostin relative to a decrease of leukocytes caused by cyclophosphamide.
The data are expressed as the mean±S.D and percentages based on the number of leukocytes on Day 0. ND refers to no data.

G-CSF = assay: Test for investigating the increase of G-CSF concentration in normal mice (plasma, mouse G-CSF ELISA); conditions: blood on day after completion
Experimental: ICR strain male mice (Crj:CD-1) aged 7 weeks were used in the test. The animals were divided into 4 groups of 5 animals per group. The following were intravenously and repeatedly administered to the groups, respectively, for 5 days; the first group: physiological saline as solvent, the second group: sulphostin (10 mg/kg/day), the third group: sulphostin (30 mg/kg/day), and the fourth group: sulphostin (90 mg/kg/day). On the day subsequent to completion of the administration, blood was drawn from the abdominal aorta under anesthesia. The blood obtained was centrifuged to collect plasma, and G-CSF was measured by the use of a mouse G-CSF ELISA measuring kit (R & D SYSTEMS Inc.).

leukocytes [2] = assay: Test for investigating the increase of leukocytes in normal mice; conditions: blood on day after last administration
Experimental: ICR strain male mice (Crj:CD-1) aged 7 weeks were used in the test. The animals were divided into 5 groups of 4 animals per group. The following were intravenously and repeatedly administered to the groups, respectively, for 5 days; the first group: physiological saline as solvent, the second group: sulphostin (2 mg/kg/day), the third group: sulphostin (10 mg/kg/day), the fourth group: sulphostin (50 mg/kg/day), and the fifth group: sulphostin (250 mg/kg/day). On the day subsequent to the last day of the administration period, blood was drawn from the abdominal aorta under anesthesia and the number of leukocytes was measured.

[3] = sulphostin 10 mg/kg/day i.v. for 5 days

N[C@H]1CCCN([P@@](N)(=O)NS(=O)(=O)O)C1=O [Sulphostin, 3(S)-amino-1-((R)-amino(sulfoamino)-phosphinyl)-2-piperidone]
number of leukocytes, percentage based on Day 0 (leukocytes [1]; sulphostin 30 mg/kg/day i.v. Day 1 to 5, Day 0 (before cyclophosphamide)): 100% | number of leukocytes (mean ± S.D) (leukocytes [1]; sulphostin 30 mg/kg/day i.v. Day 1 to 5, Day 0 (before cyclophosphamide), n = 3): 44 ± 7.1 ×100/millimeter cube | number of leukocytes, percentage based on Day 0 (leukocytes [1]; sulphostin 30 mg/kg/day i.v. Day 1 to 5, Day 4): 30% | number of leukocytes (mean ± S.D) (leukocytes [1]; sulphostin 30 mg/kg/day i.v. Day 1 to 5, Day 4, n = 3): 13 ± 12.5 ×100/millimeter cube | number of leukocytes, percentage based on Day 0 (leukocytes [1]; sulphostin 30 mg/kg/day i.v. Day 1 to 5, Day 6): 95% | number of leukocytes (mean ± S.D) (leukocytes [1]; sulphostin 30 mg/kg/day i.v. Day 1 to 5, Day 6, n = 3): 42 ± 14.5 ×100/millimeter cube | number of leukocytes, percentage based on Day 0 (leukocytes [1]; sulphostin 100 mg/kg/day i.v. Day 1 to 5, Day 0 (before cyclophosphamide)): 100% | number of leukocytes (mean ± S.D) (leukocytes [1]; sulphostin 100 mg/kg/day i.v. Day 1 to 5, Day 0 (before cyclophosphamide), n = 4): 38 ± 17.2 ×100/millimeter cube | number of leukocytes, percentage based on Day 0 (leukocytes [1]; sulphostin 100 mg/kg/day i.v. Day 1 to 5, Day 2): 55% | number of leukocytes (mean ± S.D) (leukocytes [1]; sulphostin 100 mg/kg/day i.v. Day 1 to 5, Day 2, n = 4): 21 ± 5.1 ×100/millimeter cube | number of leukocytes, percentage based on Day 0 (leukocytes [1]; sulphostin 100 mg/kg/day i.v. Day 1 to 5, Day 4): 26% | number of leukocytes (mean ± S.D) (leukocytes [1]; sulphostin 100 mg/kg/day i.v. Day 1 to 5, Day 4, n = 4): 10 ± 6.3 ×100/millimeter cube | number of leukocytes, percentage based on Day 0 (leukocytes [1]; sulphostin 100 mg/kg/day i.v. Day 1 to 5, Day 6): 126% | number of leukocytes (mean ± S.D) (leukocytes [1]; sulphostin 100 mg/kg/day i.v. Day 1 to 5, Day 6, n = 4): 48 ± 23.8 ×100/millimeter cube | number of leukocytes, percentage based on Day 0 (leukocytes [1]; sulphostin 100 mg/kg/day i.v. Day 1 to 5, Day 8): 668% | number of leukocytes (mean ± S.D) (leukocytes [1]; sulphostin 100 mg/kg/day i.v. Day 1 to 5, Day 8, n = 4): 254 ± 75.5 ×100/millimeter cube | restoration of the number of leukocytes to the initial value after the administration of cyclophosphamide, time required (leukocytes [1]; sulphostin-treated groups (30 and 100 mg/kg/day i.v.), control group requires 8 days): 6 days | G-CSF level higher than that of the control group by factor (G-CSF; [3]): 1.03 | G-CSF level higher than that of the control group by factor (G-CSF; sulphostin 30 mg/kg/day i.v. for 5 days): 6.1 | G-CSF level higher than that of the control group by factor (G-CSF; sulphostin 90 mg/kg/day i.v. for 5 days): 7.0 | number of leukocytes larger than that of the control group by factor (leukocytes [2]; sulphostin 2 mg/kg/day i.v. for 5 days): 1.4 | number of leukocytes larger than that of the control group by factor (leukocytes [2]; [3]): 1.9 | number of leukocytes larger than that of the control group by factor (leukocytes [2]; sulphostin 50 mg/kg/day i.v. for 5 days): 4.9 | number of leukocytes larger than that of the control group by factor (leukocytes [2]; sulphostin 250 mg/kg/day i.v. for 5 days): 5.9
